Patent US9617286B2, “Fungicide N-[(trisubstitutedsilyl)methyl]-carboxamide derivatives” (BAYER INTELLECTUAL PROPERTY GMBH, priority 2011, dated 2017)

What was measured:
[1] = system: Sphaerotheca fuliginea; assay: In vivo preventive test on Sphaerotheca fuliginea (powdery mildew on cucurbits); conditions: gherkin plants, preventive spray, 500 ppm of active ingredient, grading 12 days after contamination
Procedure: Gherkin plants (“Vert petit de Paris” variety), sown in starter cups on a 50/50 peat soil-pozzolana substrate and grown at 24° C., are treated at the Z11 cotyledon stage by spraying with the active ingredient prepared as described above. Plants, used as controls, are treated with the mixture of acetone/tween/DMSO/water not containing the active material. After 24 hours, the plants are contaminated by spraying the cotyledons with an aqueous suspension of Sphaerotheca fuliginea spores (100 000 spores per mL). The spores are collected from infected plants. The contaminated gherkin plants are incubated at about 20° C. and at 70-80% relative humidity. Grading (% of efficacy) is carried out 12 days after the contamination, in comparison with the control plants.

[2] = system: Alternaria solani; assay: In vivo preventive test on Alternaria solani (tomato); conditions: preventive spray, 500 ppm of active ingredient, evaluated 7 days after inoculation
Procedure: Solvent: 49 parts by weight of N,N-dimethylformamide Emulsifier: 1 part by weight of alkylaryl polyglycol ether To produce a suitable preparation of active compound, 1 part by weight of active compound is mixed with the stated amounts of solvent and emulsifier, and the concentrate is diluted with water to the desired concentration. To test for preventive activity, young plants are sprayed with the preparation of active compound at the stated rate of application. One day after this treatment, the plants are inoculated with an aqueous spore suspension of Alternaria solani. The plants remain for one day in an incubation cabinet at approximately 22° C. and a relative atmospheric humidity of 100%. Then the plants are placed in an incubation cabinet at approximately 20° C. and a relative atmospheric humidity of 96%.

[3] = system: Pyrenophora teres; assay: In vivo preventive test on Pyrenophora teres (barley); conditions: preventive spray (DMF/alkylaryl polyglycol ether), 500 ppm of active ingredient, evaluated 7-9 days after inoculation
Method in brief: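 Young barley plants sprayed preventively with compound in DMF/emulsifier diluted in water, then inoculated one day later with aqueous P. teres spore suspension. Held 48 h at 22 °C and 100% relative humidity, then greenhouse at about 20 °C and 80% humidity.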

[4] = system: Pyrenophora teres; assay: In vivo preventive test on Pyrenophora teres (barley) - 2nd test; conditions: 2nd test (acetone/tween/DMSO), 500 ppm of active ingredient, grading 14 days after contamination
Procedure: Barley plants (“Plaisant” variety), sown in starter cups on a 50/50 peat soil pozzolana substrate and grown at 22° C., are treated at the 1 leaf stage (10 cm height) by spraying with the active ingredient prepared as described above. Plants, used as controls, are treated with the mixture of acetone/tween/DMSO/water not containing the active material. After 24 hours, the plants are contaminated by spraying the leaves with an aqueous suspension of Pyrenophora teres spores (12 000 spores per mL). The spores are collected from a 12-day-old culture. The contaminated barley plants are incubated for 48 hours at 20° C. and at 100% relative humidity, and then for 12 days at 20° C. at 70-80% relative humidity. Grading (% of efficacy) is carried out 14 days after the contamination, in comparison with the control plants.

[5] = system: Septoria tritici; assay: In vivo preventive test on Septoria tritici (wheat); conditions: preventive spray, 500 ppm of active ingredient, grading 24 days after contamination
Procedure: Wheat plants (“Scipion” variety), sown in starter cups on a 50/50 peat soil pozzolana substrate and grown at 22° C., are treated at the 1 leaf stage (10 cm height) by spraying with the active ingredient prepared as described above. Plants, used as controls, are treated with the mixture of acetone/tween/DMSO/water not containing the active material. After 24 hours, the plants are contaminated by spraying the leaves with an aqueous suspension of cryopreserved Septoria tritici spores (500 000 spores per mL). The contaminated wheat plants are incubated for 72 hours at 18° C. and at 100% relative humidity, and then for 21 days at 90% relative humidity. Grading (% of efficacy) is carried out 24 days after the contamination, in comparison with the control plants.

[6] = system: Puccinia recondita; assay: In vivo preventive test on Puccinia recondita (brown rust on wheat); conditions: preventive spray, 500 ppm of active ingredient, grading 12 days after contamination
Procedure: Wheat plants (“Scipion” variety), sown in starter cups on a 50/50 peat soil pozzolana substrate and grown at 22° C., are treated at the 1 leaf stage (10 cm height) by spraying with the active ingredient prepared as described above. Plants, used as controls, are treated with the mixture of acetone/tween/DMSO/water not containing the active material. After 24 hours, the plants are contaminated by spraying the leaves with an aqueous suspension of Puccinia recondita spores (100 000 spores per mL). The spores are collected from an infected plant and are suspended in water containing 2.5 mL/L of Tween 80 at 10%. The contaminated wheat plants are incubated for 24 hours at 20° C. and at 100% relative humidity, and then for 10 days at 20° C. and at 70-80% relative humidity. Grading (% of efficacy) is carried out 12 days after the contamination, in comparison with the control plants.

[7] = system: Botrytis cinerea; assay: In vivo preventive test on Botrytis cinerea (grey mould) - 2nd test; conditions: gherkin plants, 2nd test (acetone/tween/DMSO), 500 ppm of active ingredient, grading 4 to 5 days after contamination
Procedure: Gherkin plants (“Vert petit de Paris” variety), sown in starter cups on a 50/50 peat soil pozzolana substrate and grown at 24° C., are treated at the Z11 cotyledon stage by spraying with the active ingredient prepared as described above. Plants, used as controls, are treated with the mixture of acetone/tween/DMSO/water not containing the active material. After 24 hours, the plants are contaminated by spraying the cotyledons with an aqueous suspension of cryopreserved Botrytis cinerea spores (50 000 spores per mL). The spores are suspended in a nutrient solution composed of 10 g/L of PDB, 50 g/L of D-Fructose, 2 g/L of NH4NO3 and 1 g/L of KH2PO4. The contaminated gherkin plants are incubated at 17° C. and at 90% relative humidity. Grading (% of efficacy) is carried out 4 to 5 days after the contamination, in comparison with the control plants.

[8] = system: Uromyces appendiculatus; assay: In vivo preventive test on Uromyces appendiculatus (bean rust); conditions: bean plants, preventive spray, 500 ppm of active ingredient, grading 11 days after contamination
Procedure: Bean plants (“Saxa” variety), sown in starter cups on a 50/50 peat soil pozzolana substrate and grown at 24° C., are treated at the 2 leaf stage (9 cm height) by spraying with the active ingredient prepared as described above. Plants, used as controls, are treated with the mixture of acetone/tween/DMSO/water not containing the active material. After 24 hours, the plants are contaminated by spraying the leaves with an aqueous suspension of Uromyces appendiculatus spores (150 000 spores per mL). The spores are collected from infected plants and are suspended in water containing 2.5 mL/L of Tween 80 at 10%. The contaminated bean plants are incubated for 24 hours at 20° C. and at 100% relative humidity, and then for 10 days at 20° C. and at 70-80% relative humidity. Grading (% of efficacy) is carried out 11 days after the contamination, in comparison with the control plants.

[9] = log P by HPLC on reversed-phase column (C 18), EEC Directive 79/831 Annex V.A8; format: physicochemical; conditions: 40° C., 0.1% aqueous formic acid and acetonitrile, linear gradient 10% to 90% acetonitrile
Method in brief: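 Reversed-phase C18 HPLC at 40° C, 0.1% aqueous formic acid/acetonitrile gradient from 10% to 90% acetonitrile. log P derived from retention times by linear interpolation between unbranched alkan-2-ones (3–16 carbons) of known log P.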

[10] = system: Alternaria brassicae; assay: In vivo preventive test on Alternaria brassicae (leaf spot on radish); conditions: preventive spray, 500 ppm of active ingredient, grading 6 days after contamination
Procedure: Radish plants (“Pernod Clair” variety), sown in starter cups on a 50/50 peat soil pozzolana substrate and grown at 17° C., are treated at the cotyledon stage by spraying with the active ingredient prepared as described above. Plants, used as controls, are treated with the mixture of acetone/tween/DMSO/water not containing the active material. After 24 hours, the plants are contaminated by spraying the cotyledons with an aqueous suspension of Alternaria brassicae spores (50 000 spores per mL). The spores are collected from a 15-day-old culture. The contaminated radish plants are incubated at 20° C. and at 100% relative humidity. Grading (% of efficacy) is carried out 6 days after the contamination, in comparison with the control plants.

[11] = system: Pyricularia oryzae; format: in vivo; conditions: rice, preventive spray, 500 ppm of active ingredient, grading 6 days after contamination
[12] = system: Leptosphaeria nodorum; assay: In vivo preventive test on Leptosphaeria nodorum (wheat); conditions: preventive spray, 500 ppm of active ingredient, evaluated 7-9 days after inoculation
Procedure: Solvent: 49 parts by weight of N,N-dimethylformamide Emulsifier: 1 part by weight of alkylaryl polyglycol ether To produce a suitable preparation of active compound, 1 part by weight of active compound is mixed with the stated amounts of solvent and emulsifier, and the concentrate is diluted with water to the desired concentration. To test for preventive activity, young plants are sprayed with a preparation of active compound at the stated rate of application. One day after this treatment, the plants are inoculated with an aqueous spore suspension of Leptosphaeria nodorum. The plants remain for 48 hours in an incubation cabinet at 22° C. and a relative atmospheric humidity of 100%. Then the plants are placed in a greenhouse at a temperature of approximately 22° C. and a relative atmospheric humidity of approximately 90%.

Row | Compound | Efficacy [1] [%] | Efficacy [2] [%] | Efficacy [3] [%] | Efficacy [4] [%] | Efficacy [5] [%] | Efficacy [6] [%] | Efficacy [7] [%] | Efficacy [8] [%] | chromatographic logP [9] | logP [9] | Efficacy [10] [%] | Efficacy [11] [%] | Efficacy [12] [%]
1 | C[Si](C)(CNC(=O)c1cccnc1C(F)F)c1ccccc1 [Example 1, 2-(difluoromethyl)-N-{[dimethyl(phenyl)silyl]methyl}nicotinamide] | 98 | 95 | 90 | 79 | 100 | 88 | 89 | 100 | 2.71 |  |  |  | 
2 | C[Si](C)(CNC(=O)c1cccnc1C(F)F)c1ccccc1Cl [Example 22] | 78 |  |  |  | 96 | 100 | 92 | 96 |  | 3.06 |  |  | 
3 | CC1=C(C(=O)NC[Si](C)(C)c2ccccc2Cl)SCCO1 [Example 42] |  |  |  | 93 | 100 | 72 |  |  |  | 3.50 |  |  | 
4 | C[Si](C)(CN(C(=O)c1cccnc1C(F)F)C1CC1)c1ccc(F)cc1Cl [Example 45] | 83 |  |  |  | 80 | 75 |  |  |  | 3.96 | 90 | 83 | 
5 | C[Si](C)(CN(C(=O)c1cccnc1Cl)C1CC1)c1ccc(F)cc1Cl [Example 46] |  |  |  |  |  |  |  |  |  | 4.06 |  | 92 | 
6 | C[Si](C)(CN(C(=O)c1cccnc1C(F)F)C1CC1)c1ccc(Cl)cc1Cl [Example 62] | 79 | 94 | 100 | 93 | 100 | 92 |  |  |  | 4.51 |  |  | 70
